Literature values, collected in US20250032463A1, “RAPAMYCIN-CONTAINING PHARMACEUTICAL COMPOSITION” (NOBELPHARMA CO., LTD., priority 2023, published 2025).

stability in aqueous solvents: unstable
SMILES: CO[C@H]1C[C@@H]2CC[C@@H](C)[C@@](O)(O2)C(=O)C(=O)N2CCCC[C@H]2C(=O)O[C@H]([C@H](C)C[C@@H]2CC[C@@H](O)[C@H](OC)C2)CC(=O)[C@H](C)/C=C(\C)[C@@H](O)[C@@H](OC)C(=O)[C@H](C)C[C@H](C)/C=C/C=C/C=C/1C [rapamycin, Rapamycin]
